Tests used:
Experiment in all cases: fitness (endpoint OD595 vs no drug) (fraction); higher = more growth
B. subtilis 168 = test system: B. subtilis 168
Outline: (§1)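 In 384-well plates at 37 °C, cultures began at OD595 0.01 in 30 µl, with 55 µl used for S. pneumoniae. OD595 readings every 30 min for 14 h were corrected by the first reading. Fitness divides the stationary-phase transition optical density by the robust mean of no-drug control wells. The result is capped at 1.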

S. aureus DSM 20231 = test system: S. aureus DSM 20231
Outline: as §1

S. pneumoniae D39V = test system: S. pneumoniae D39V
Outline: as §1
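Also: OD595 on entry to stationary phase over no-drug wells; at most 1.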

CN(C)[C@@H]1C(O)=C(C(N)=O)C(=O)[C@@]2(O)C(O)=C3C(=O)c4c(O)ccc(Cl)c4[C@@](C)(O)[C@H]3C[C@@H]12 [Chlortetracycline] + N[C@@H]1CONC1=O [Cycloserine D]
fitness
Settings	first compound 0.012 µg/mL	first compound 0.024 µg/mL	first compound 0.0475 µg/mL	first compound 0.048 µg/mL	first compound 0.095 µg/mL	first compound 0.19 µg/mL
B. subtilis 168, partner 0.125 µg/mL	–	–	0.936	–	0.784	0.515
B. subtilis 168, partner 0.25 µg/mL	–	–	0.894	–	0.782	0.439
B. subtilis 168, partner 0.5 µg/mL	–	–	0.899	–	0.764	0.515
S. aureus DSM 20231, partner 0.375 µg/mL	0.667	0.241	–	0.0627	–	–
S. aureus DSM 20231, partner 0.75 µg/mL	0.623	0.249	–	0.0661	–	–
S. aureus DSM 20231, partner 1.5 µg/mL	0.68	0.264	–	0.0906	–	–

S. aureus DSM 20231, first compound 0.006 µg/mL, one replicate
Settings	fitness
partner 0.375 µg/mL	0.804
partner 0.75 µg/mL	0.782
partner 1.5 µg/mL	0.804

CN(C)[C@@H]1C(O)=C(C(N)=O)C(=O)[C@@]2(O)C(O)=C3C(=O)c4c(O)ccc(Cl)c4[C@@](C)(O)[C@H]3C[C@@H]12 [Chlortetracycline] + CC(=O)NC[C@H]1CN(c2ccc(N3CCOCC3)c(F)c2)C(=O)O1 [Linezolid]
one replicate
Settings	fitness
B. subtilis 168, first compound 0.0475 µg/mL, partner 0.0625 µg/mL	0.751
B. subtilis 168, first compound 0.095 µg/mL, partner 0.0625 µg/mL	0.53
B. subtilis 168, first compound 0.19 µg/mL, partner 0.0625 µg/mL	0.213
S. aureus DSM 20231, first compound 0.006 µg/mL, partner 0.125 µg/mL	0.649
S. aureus DSM 20231, first compound 0.006 µg/mL, partner 0.25 µg/mL	0.59
S. aureus DSM 20231, first compound 0.006 µg/mL, partner 0.5 µg/mL	0.213
S. aureus DSM 20231, first compound 0.012 µg/mL, partner 1 µg/mL	0.0536
S. aureus DSM 20231, first compound 0.024 µg/mL, partner 1 µg/mL	0.0397
S. aureus DSM 20231, first compound 0.048 µg/mL, partner 1 µg/mL	0.0171

Settings	fitness
B. subtilis 168, first compound 0.0475 µg/mL, partner 0.25 µg/mL	0.0413
B. subtilis 168, first compound 0.0475 µg/mL, partner 0.5 µg/mL	0.0371
B. subtilis 168, first compound 0.095 µg/mL, partner 0.25 µg/mL	0.0555
B. subtilis 168, first compound 0.095 µg/mL, partner 0.5 µg/mL	0.0371
B. subtilis 168, first compound 0.19 µg/mL, partner 0.125 µg/mL	0.0875
B. subtilis 168, first compound 0.19 µg/mL, partner 0.25 µg/mL	0.0467
B. subtilis 168, first compound 0.19 µg/mL, partner 0.5 µg/mL	0.0344
S. aureus DSM 20231, first compound 0.012 µg/mL, partner 0.125 µg/mL	0.516
S. aureus DSM 20231, first compound 0.012 µg/mL, partner 0.25 µg/mL	0.423
S. aureus DSM 20231, first compound 0.012 µg/mL, partner 0.5 µg/mL	0.135
S. aureus DSM 20231, first compound 0.024 µg/mL, partner 0.25 µg/mL	0.179
S. aureus DSM 20231, first compound 0.024 µg/mL, partner 0.5 µg/mL	0.0849
S. aureus DSM 20231, first compound 0.048 µg/mL, partner 0.125 µg/mL	0.141
S. aureus DSM 20231, first compound 0.048 µg/mL, partner 0.25 µg/mL	0.0729
S. aureus DSM 20231, first compound 0.048 µg/mL, partner 0.5 µg/mL	0.0288
S. pneumoniae D39V, first compound 0.012 µg/mL, partner 0.105 µg/mL	0.785
S. pneumoniae D39V, first compound 0.012 µg/mL, partner 0.21 µg/mL	0.685
S. pneumoniae D39V, first compound 0.012 µg/mL, partner 0.42 µg/mL	0.422
S. pneumoniae D39V, first compound 0.024 µg/mL, partner 0.105 µg/mL	0.739
S. pneumoniae D39V, first compound 0.024 µg/mL, partner 0.21 µg/mL	0.585
S. pneumoniae D39V, first compound 0.024 µg/mL, partner 0.42 µg/mL	0.251
S. pneumoniae D39V, first compound 0.048 µg/mL, partner 0.105 µg/mL	0.609
S. pneumoniae D39V, first compound 0.048 µg/mL, partner 0.21 µg/mL	0.387
S. pneumoniae D39V, first compound 0.048 µg/mL, partner 0.42 µg/mL	0.211
S. pneumoniae D39V, first compound 0.375 µg/mL, partner 0.2 µg/mL	0.0262
S. pneumoniae D39V, first compound 0.375 µg/mL, partner 0.4 µg/mL	0.028
S. pneumoniae D39V, first compound 0.375 µg/mL, partner 0.8 µg/mL	0.0276
S. pneumoniae D39V, first compound 0.75 µg/mL, partner 0.2 µg/mL	0.025
S. pneumoniae D39V, first compound 0.75 µg/mL, partner 0.4 µg/mL	0.04
S. pneumoniae D39V, first compound 0.75 µg/mL, partner 0.8 µg/mL	0.0503
S. pneumoniae D39V, first compound 1.5 µg/mL, partner 0.2 µg/mL	0.0494
S. pneumoniae D39V, first compound 1.5 µg/mL, partner 0.4 µg/mL	0.0334
S. pneumoniae D39V, first compound 1.5 µg/mL, partner 0.8 µg/mL	0.044

CN(C)[C@@H]1C(O)=C(C(N)=O)C(=O)[C@@]2(O)C(O)=C3C(=O)c4c(O)ccc(Cl)c4[C@@](C)(O)[C@H]3C[C@@H]12 [Chlortetracycline] + CN[C@@H]1[C@H](O)[C@H](NC)[C@H]2O[C@@]3(O)C(=O)C[C@@H](C)O[C@H]3O[C@@H]2[C@H]1O [Spectinomycin]
fitness
Settings	partner 2 µg/mL	partner 4 µg/mL	partner 8 µg/mL	partner 16 µg/mL
B. subtilis 168, first compound 0.0475 µg/mL	0.885	0.884	0.752	–
B. subtilis 168, first compound 0.095 µg/mL	0.803	0.806	0.691	–
B. subtilis 168, first compound 0.19 µg/mL	0.523	0.409	0.199	–
S. aureus DSM 20231, first compound 0.012 µg/mL	–	0.529	–	0.494
S. aureus DSM 20231, first compound 0.024 µg/mL	–	0.203	–	–
S. aureus DSM 20231, first compound 0.048 µg/mL	–	0.137	0.0943	0.05
S. pneumoniae D39V, first compound 0.375 µg/mL	–	0.0802	0.0586	0.0693
S. pneumoniae D39V, first compound 0.75 µg/mL	–	0.0886	0.0941	0.0722
S. pneumoniae D39V, first compound 1.5 µg/mL	–	0.0871	0.0754	0.0779

fitness, one replicate
Settings	first compound 0.006 µg/mL	first compound 0.012 µg/mL	first compound 0.024 µg/mL	first compound 0.048 µg/mL
S. aureus DSM 20231, partner 4 µg/mL	0.669	–	–	–
S. aureus DSM 20231, partner 8 µg/mL	0.707	–	–	–
S. aureus DSM 20231, partner 16 µg/mL	0.655	–	–	–
S. aureus DSM 20231, partner 32 µg/mL	–	0.298	0.058	0.0249
S. aureus DSM 20231, partner 64 µg/mL	–	0.0229	0.0093	0.0056
S. pneumoniae D39V, partner 4 µg/mL	–	0.901	0.859	0.795
S. pneumoniae D39V, partner 8 µg/mL	–	0.853	0.859	0.78

CN(C)[C@@H]1C(O)=C(C(N)=O)C(=O)[C@@]2(O)C(O)=C3C(=O)c4c(O)ccc(Cl)c4[C@@](C)(O)[C@H]3C[C@@H]12 [Chlortetracycline] + COc1ccc(C[C@H](N)C(=O)N[C@H]2[C@@H](O)[C@H](n3cnc4c(N(C)C)ncnc43)O[C@@H]2CO)cc1 [Puromycin]
fitness
Settings	partner 0.39 µg/mL	partner 0.78 µg/mL	partner 1 µg/mL	partner 1.56 µg/mL	partner 2 µg/mL	partner 4 µg/mL
B. subtilis 168, first compound 0.0475 µg/mL	0.858	0.901	–	0.904	–	–
B. subtilis 168, first compound 0.095 µg/mL	0.741	0.728	–	0.671	–	–
B. subtilis 168, first compound 0.19 µg/mL	0.512	0.459	–	0.351	–	–
S. aureus DSM 20231, first compound 0.012 µg/mL	0.567	0.589	–	0.497	–	–
S. aureus DSM 20231, first compound 0.024 µg/mL	0.2	0.217	–	0.137	–	–
S. aureus DSM 20231, first compound 0.048 µg/mL	0.053	0.171	–	0.0612	–	–
S. pneumoniae D39V, first compound 0.375 µg/mL	–	–	0.0657	–	0.0757	0.0703
S. pneumoniae D39V, first compound 0.75 µg/mL	–	–	0.0562	–	0.0783	0.0776
S. pneumoniae D39V, first compound 1.5 µg/mL	–	–	0.0348	–	0.0557	0.0492

fitness, one replicate
Settings	first compound 0.006 µg/mL	first compound 0.012 µg/mL	first compound 0.024 µg/mL	first compound 0.048 µg/mL
S. aureus DSM 20231, partner 0.39 µg/mL	0.853	–	–	–
S. aureus DSM 20231, partner 0.78 µg/mL	0.847	–	–	–
S. aureus DSM 20231, partner 1.56 µg/mL	0.731	–	–	–
S. aureus DSM 20231, partner 3.12 µg/mL	–	0.325	0.0559	0.0249
S. aureus DSM 20231, partner 6.24 µg/mL	–	0.0809	0.0524	0.0264
S. pneumoniae D39V, partner 1 µg/mL	–	0.822	0.875	0.647
S. pneumoniae D39V, partner 2 µg/mL	–	0.793	0.773	0.453
S. pneumoniae D39V, partner 4 µg/mL	–	0.619	0.606	0.171

From the supplement of paper PMC10627819
